Test results from patent publication US5389643A, “Aminobenzoic acid derivatives useful for treating gastro-intestinal conditions” (Eisai Co., Ltd., priority 1992, dated 1995).
Where a name gives a salt, the structure may show the parent alone. Read-outs that look alike come from different tables or passages of the source. Blank lines part the entries; values can stand above or below the compound they belong to.

Legend:
[1] = target: T1, 2-methylserotonin-induced contraction of the ileum (5-HT3 antagonism) (Cavia porcellus, UniProt O70212); assay: Antagonism against 2-methylserotonin-induced contraction or systole of ileum; format: cell-based, guinea pig (Hartley male); settings: test compound added 30 minutes before 2-methylserotonin, nonterminal ileum, 37° C.; for Kb: read-out: pA2 (converted)
T1 construct: from tissue; host or cells: isolated nonterminal ileum of male Hartley guinea pig
T1 sequence (O70212 20-490): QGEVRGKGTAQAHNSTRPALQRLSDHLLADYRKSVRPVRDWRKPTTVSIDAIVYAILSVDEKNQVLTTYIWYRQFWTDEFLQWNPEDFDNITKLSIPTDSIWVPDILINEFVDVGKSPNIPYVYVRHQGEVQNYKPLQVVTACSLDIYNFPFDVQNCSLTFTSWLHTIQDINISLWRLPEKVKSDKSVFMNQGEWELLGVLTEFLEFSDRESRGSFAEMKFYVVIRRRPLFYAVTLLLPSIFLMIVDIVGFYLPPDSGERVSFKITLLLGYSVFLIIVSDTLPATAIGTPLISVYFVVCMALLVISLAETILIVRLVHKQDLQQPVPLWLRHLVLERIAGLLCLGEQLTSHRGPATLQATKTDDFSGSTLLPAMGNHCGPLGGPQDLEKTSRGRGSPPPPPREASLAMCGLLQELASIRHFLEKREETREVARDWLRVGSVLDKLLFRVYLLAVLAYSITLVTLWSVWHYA
Protocol: Antagonism against 2-methylserotonin-induced contraction or systole of ileum
This experiment was made according to the method of Sanger et al. [see Eur. J. Pharmacol., 159, 113-124 (1989)]. The nonterminal ileum of a Hartley male guinea pig was suspended in the Krebs-Henseleit solution (37° C.) by applying a load of 0.5 g to the end of the ileum and a gaseous mixture comprising 95% of oxygen and 5% of carbon dioxide was passed through the solution. The contraction of the ileum was isometrically determined. After allowing the ileum to stand for one or more hours for stabilization, a solution of a test compound was added to the solution, and after 30 minutes, 2-methylserotonin was noncumulatively added. The pA2 value was calculated from the rightward shift of the dose-response curve of the 2-methylserotonin-induced contraction caused by the test compound according to the method of Rossum et al. [see Arch. Int. Pharmacodyn., 143, 299(1963)]. BRL 24682 was used as a control in this experiment.

[2] = tested on: gastric emptying function; assay: Activity for raising gastric emptying function; format: in vivo, Fischer male rats; settings: oral (5 ml/kg), one hour before test food, versus control rat
Protocol: Activity for raising gastric emptying function
This experiment was made according to the method of Decktot et al. [see Eur. J. Pharmacol., 147, 313-316 (1988)]. Fischer male rats (weight: 160 to 180 g) were fasted for 18 hours before 3 ml of a test food comprising methylcellulose, beef broth, casein, sugar and corn starch was orally administered to each rat. One hour after the administration, the stomach was extirpated from each rat. The gastric emptying ratio was calculated from the weight of the test food remaining in the stomach. The ratio of rise of the gastric emptying function was determined by comparing the gastiric emptying ratio of a medicated rat with that of a control rat which had not administered any test compounds. Each test compound (5 ml/kg) was orally administered one hour before the administration of the test food. BRL 24682 was used as a control in this experiment.

[3] = tested on: cisplatin-induced vomiting; assay: Activity against cisplatin-induced vomiting of beagle; format: in vivo; settings: intravenous, one hour after cisplatin 3 mg/kg, 5-hour observation
Protocol: Activity against cisplatin-induced vomiting of beagle
Beagles weighing 7 to 12 kg were used. 3 mg/kg of cisplatin (a product of Sigma) (1 ml/kg of physiological saline) was administered to each beagle through the vein of its forefoot. One hour after the administration of cisplatin, physiological saline (0.2 ml/kg) was administered to a control group of beagles and a solution of a test compound in physiological saline was administered to a test group of beagles, each through the vein of the other forefoot. The frequency of vomiting observed over a 5-hour period from the administration of cisplatin was recorded and the inhibitory ratio of the test compound was calculated according to the following formula.

[4] = tested on: contraction of guinea pig ileum induced by electrical field stimulation (acetylcholine release); assay: Effect of increasing contraction of guinea pig ileum induced by electrical field stimulation; format: cell-based; settings: electrical field stimulation once per 10 seconds, cumulative addition at intervals of 10 minutes, 37° C., read-out: Min. concn. causing increment of ileal contraction
Protocol: Effect of increasing contraction of guinea pig ileum induced by electrical field stimulation
This experiment was made according to the method of Sanger et al. [see Br. J. Pharmacol., 91, 77-87 (1987)]. The longitudinal muscle of the nonterminal ileum of a guinea pig was separated and vertically suspended in the Krebs-Henseleit solution (37° C.) in a Magnus tube by applying a load of 0.5 g to the end of the muscle. A mixed gas comprising 95% of oxygen and 5% of carbon dioxide was passed through the solution. The contraction of the muscle was isometrically determined. Electrical field stimulation was applied to the muscle by the use of a platinum electrode once per 10 seconds to induce the contraction of the muscle. The contraction was caused through the release of acetylcholine. After the muscle had been stabilized, a solution of a test compound was cumulatively added into the Magnus tube at intervals of 10 minutes. The effect of the test compound is represented by percentage based on the initial contraction. The minimum concentration of each test compound at which an increment was found in the contraction due to the release of acetylcholine is shown in Table 4.

rat = assay: Oral toxicity in rat, one week; format: in vivo; settings: dose of up to 30 mg/kg
[5] = listed as 42 (+)-isomer, hydrochloride
[6] = listed as 43 (-)-isomer, hydrochloride

Structure (SMILES): C#CCC(C)Oc1cc(N)c(Cl)cc1C(=O)N[C@H]1C[C@H]2CC[C@@H](C1)N2C (single isomer, unassigned; (+)) [Example 42, (+)-endo-4-Amino-5-chloro-N-(8-methyl-8-azabicyclo[3.2.1]oct-3-yl)-2-{(4-pentyn-2-yl)oxy}benzamide hydrochloride]
Kb [1]: 1.2 nM
Ratio of rise of gastric emptying function [2, 5]: 22.2%
Inhibitory ratio against cisplatin-induced vomiting ([3]; 0.03 mg/kg): 59%
Inhibitory ratio against cisplatin-induced vomiting ([3]; 0.1 mg/kg): 92%
minimal effective concentration [4, 5]: 0.086 µM

Structure (SMILES): CCC#CCC(C)Oc1cc(N)c(Cl)cc1C(=O)N[C@H]1C[C@H]2CC[C@@H](C1)N2C (stereo partly drawn) [Example 26, endo-4-Amino-S-chloro-2-{(4-heptyn-2-yl)oxy}-N-(8-methyl-8-azabicyclo[3.2.1]oct-3-yl)benzamide hydrochloride]
Kb [1]: 0.468 nM
minimal effective concentration ([4]; Cavia porcellus, 10 min): > 100 µM

Structure (SMILES): C#CCC(C)Oc1cc(N)c(Cl)cc1C(=O)N[C@H]1C[C@H]2CC[C@@H](C1)N2C (single isomer, unassigned; (-)) [Example 43, (-)-endo-4-Amino-5-chloro-N-(8-methyl-8-azabicyclo[3.2.1]oct-3-yl)-2-{(4-pentyn-2-yl)oxy}benzamide hydrochloride]
Ratio of rise of gastric emptying function [2, 6]: 12.9%
minimal effective concentration [4, 6]: 0.47 µM
toxicity on oral administration for one week (rat): no toxicity was exhibited in a dose of up to 30 mg/kg

Structure (SMILES): C#CC(CCC)Oc1cc(N)c(Cl)cc1C(=O)N[C@H]1C[C@H]2CC[C@@H](C1)N2C (stereo partly drawn) [Example 29, endo-4-Amino-5-chloro-2-{(1-hexyn-3-yl)oxy}-N-(8-methyl-8-azabicyclo[3.2.1]oct-3-yl)benzamide hydrochloride]
Kb [1]: 0.457 nM
Ratio of rise of gastric emptying function [2]: 20.6%
minimal effective concentration ([4]; Cavia porcellus, 10 min): 0.26 µM

Structure (SMILES): CC#CC(C)Oc1cc(N)c(Cl)cc1C(=O)N[C@H]1C[C@H]2CC[C@@H](C1)N2C (single isomer, unassigned; (+)) [Example 36, (+)-endo-4-Amino-5-chloro-N-(8-methyl-8-azabicyclo[3.2.1]oct-3-yl)-2-{(3-pentyn-2-yl)oxy}benzamide hydrochloride]
Kb [1]: 1.91 nM
minimal effective concentration ([4]; listed as 36 (-)-isomer, hydrochloride): 0.26 µM

pA2 [1]: 7.80
Structure (SMILES): COc1cc(N)c(Cl)cc1C(=O)NC1CC2CCC(C1)N2C (stereo not drawn) [BRL 24682, reference compound]
Ratio of rise of gastric emptying function [2]: 12.9%
minimal effective concentration [4]: 0.086 µM

Structure (SMILES): CC(Oc1cc(N)c(Cl)cc1C(=O)N[C@H]1C[C@H]2CC[C@@H](C1)N2C)C1CCCC1 (stereo partly drawn) [Example 32, endo-4-Amino-5-chloro-2-(1-cyclopentylethoxy)-N-(8-methyl-8-azabicyclo[3.2.1]oct-3-yl)benzamide hydrochloride]
Kb [1]: 0.933 nM
Ratio of rise of gastric emptying function [2]: 18.3%
minimal effective concentration ([4]; Cavia porcellus, 10 min): > 100 µM

Structure (SMILES): C#CCOc1cc(N)c(Cl)cc1C(=O)N[C@H]1C[C@H]2CC[C@@H](C1)N2C [Example 21, endo-4-Amino-5-chloro-(8-methyl-8-azabicyclo[3.2.1]oct-3-yl)-2-propargyloxybenzamide hydrochloride]
Kb [1]: 3.47 nM
Ratio of rise of gastric emptying function [2]: 18.9%
Inhibitory ratio against cisplatin-induced vomiting ([3]; 0.3 mg/kg): 100%
minimal effective concentration ([4]; Cavia porcellus, 10 min): 0.052 µM

Structure (SMILES): CC#CC(C)Oc1cc(N)c(Cl)cc1C(=O)N[C@H]1C[C@H]2CC[C@@H](C1)N2C (stereo partly drawn) [Example 2, endo-4-Amino-5-chloro-N-(8-methyl-8-azabicyclo[3.2.1]oct-3-yl) -2-{(3-pentyn-2-yl)oxy}benzamide hydrochloride]
Kb [1]: 2.09 nM
Ratio of rise of gastric emptying function [2]: 24.5%
minimal effective concentration ([4]; Cavia porcellus, 10 min): 0.05 µM

Structure (SMILES): CCC#CC(CC)Oc1cc(N)c(Cl)cc1C(=O)N[C@H]1C[C@H]2CC[C@@H](C1)N2C (stereo partly drawn) [Example 25, endo-4-Amino-5-chloro-2-{(4-heptyn-3-yl)oxy)-N-(8-methyl-8-azabicyclo[3.2.1]oct-3-yl)benzamide hydrochloride]
Kb [1]: 0.891 nM
Ratio of rise of gastric emptying function [2]: 26.3%
minimal effective concentration ([4]; Cavia porcellus, 10 min): 1 µM

Structure (SMILES): C#CC(CC)Oc1cc(N)c(Cl)cc1C(=O)N[C@H]1C[C@H]2CC[C@@H](C1)N2C (single isomer, unassigned; (+)) [Example 38, (+)-endo-4-Amino-5-chloro-N-(8-methyl-8-azabicyclo[3.2.1]oct-3-yl)-2-{(1-pentyn-3-yl)oxy}benzamide hydrochloride]
Kb [1]: 0.955 nM
Ratio of rise of gastric emptying function ([2]; listed as 38 (+)-isomer, hydrochloride): 20.5%
minimal effective concentration ([4]; listed as 38 (-)-isomer, hydrochloride): 0.13 µM

Structure (SMILES): CN1[C@@H]2CC[C@H]1C[C@@H](NC(=O)c1cc(Cl)c(N)cc1OC1CCOCC1)C2 [Example 33, endo-4-Amino-5-chloro-N-(8-methyl-8-azabicyclo[3.2.1]-oct-3-yl)-2-(tetrahydro-4H-pyran-4-oxy)benzamide hydrochloride]
Kb [1]: 6.17 nM
minimal effective concentration ([4]; Cavia porcellus, 10 min): 1.8 µM

Structure (SMILES): CC#CC(CC)Oc1cc(N)c(Cl)cc1C(=O)N[C@H]1C[C@H]2CC[C@@H](C1)N2C (stereo partly drawn) [Example 27, endo-4-Amino-5-chloro-2-{(2-hexyn-4-yl)oxy}-N-(8-methyl-8-azabicyclo[3.2.1]oct-3-yl)benzamide hydrochloride]
Kb [1]: 0.407 nM
Ratio of rise of gastric emptying function [2]: 17.2%
minimal effective concentration ([4]; Cavia porcellus, 10 min): 0.25 µM
